Test results reported in article PMC2602975, “Clofazimine Inhibits Human Kv1.3 Potassium Channel by Perturbing Calcium Oscillation in T Lymphocytes” (PLoS ONE, 2008).

Assays:
[1] = molecular target: T1, Kv1.3 potassium channel (Homo sapiens, UniProt P22001); assay: IC50 from whole-cell patch clamp in Jurkat T cells; format: cell-based
T1 construct: gene KCNA3; His-Kv1.3 expressed in 293T cells and purified (gel shift); endogenous Kv1.3 in Jurkat T cells (patch clamp)

[2] = molecular target: T2, mouse Kv1.3 (Mus musculus, UniProt P16390); assay: whole-cell patch clamp; format: cell-based
T2 construct: gene Kcna3; mouse Kv1.3 stably expressed in L929 cells
T2 sequence (P16390 whole entry): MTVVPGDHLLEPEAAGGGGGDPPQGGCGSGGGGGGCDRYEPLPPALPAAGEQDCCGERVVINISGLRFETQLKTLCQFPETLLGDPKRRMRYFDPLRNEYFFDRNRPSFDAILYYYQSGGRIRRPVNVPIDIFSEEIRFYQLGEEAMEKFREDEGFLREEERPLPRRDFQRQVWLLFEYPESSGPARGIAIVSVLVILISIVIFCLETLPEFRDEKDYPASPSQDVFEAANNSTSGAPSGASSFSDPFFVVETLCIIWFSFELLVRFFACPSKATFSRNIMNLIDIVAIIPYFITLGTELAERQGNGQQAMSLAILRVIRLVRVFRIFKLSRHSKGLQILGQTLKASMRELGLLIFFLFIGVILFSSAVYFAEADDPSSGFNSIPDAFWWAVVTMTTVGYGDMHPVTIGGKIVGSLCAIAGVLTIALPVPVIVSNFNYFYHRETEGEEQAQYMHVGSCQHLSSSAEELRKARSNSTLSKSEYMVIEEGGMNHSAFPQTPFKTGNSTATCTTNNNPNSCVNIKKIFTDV

T1 sequence (P22001 whole entry): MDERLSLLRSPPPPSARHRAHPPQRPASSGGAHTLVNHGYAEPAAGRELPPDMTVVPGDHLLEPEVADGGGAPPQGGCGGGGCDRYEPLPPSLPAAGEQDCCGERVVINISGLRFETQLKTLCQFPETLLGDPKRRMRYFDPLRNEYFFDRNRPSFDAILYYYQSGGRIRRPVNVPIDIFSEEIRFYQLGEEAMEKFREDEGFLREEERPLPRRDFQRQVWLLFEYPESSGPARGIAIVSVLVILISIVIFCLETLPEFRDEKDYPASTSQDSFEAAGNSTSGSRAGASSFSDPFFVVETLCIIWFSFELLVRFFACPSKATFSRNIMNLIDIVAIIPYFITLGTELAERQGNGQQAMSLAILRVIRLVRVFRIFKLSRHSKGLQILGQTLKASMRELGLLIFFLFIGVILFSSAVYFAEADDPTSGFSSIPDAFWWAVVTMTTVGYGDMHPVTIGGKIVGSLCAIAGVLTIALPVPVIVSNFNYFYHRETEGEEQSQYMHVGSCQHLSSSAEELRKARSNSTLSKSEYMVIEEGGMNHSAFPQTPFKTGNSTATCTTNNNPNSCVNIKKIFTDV

Compound: CC(C)/N=c1\cc2n(-c3ccc(Cl)cc3)c3ccccc3nc-2cc1Nc1ccc(Cl)cc1 [CLF, clofazimine]
- IC50 [1]: 300 nM
- IC50 [2]: 470 nM
